How the values were obtained:
[1] = system: HCT116; test: cell viability relative to lowest-dose well (resazurin, 96 h); higher = more viable; conditions: RPMI + 10% FBS
Method in brief: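 Viability values are expressed as percent of the lowest-dose well, using independent replicate cultures. HCT116 cells at 500 cells/well or SW620 cells at 1,000 cells/well were plated in 384-well plates in 50 µl RPMI containing 10% FBS and a metabolite supplement, then given compound dilution series dispensed from 10 mM DMSO stocks. After 96 h at 37 °C and 5% CO2, resazurin (10 µg ml^−1) conversion to resorufin was read by fluorescence at 595 nm after 5 h.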

[2] = system: SW620 MTHFD2-/-; test: cell viability relative to vehicle (resazurin, 96 h); higher = more viable; conditions: base medium: RPMI + dialysed FBS
Procedure: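 SW620 WT or MTHFD2-/- cells were treated for 96 h with a compound dilution series (log10 M) in RPMI with normal or dialysed FBS. Viability was read by resazurin and is given as % of vehicle.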

O=c1[nH]cc(F)c(=O)[nH]1 [5-fluorouracil]
cell viability [%], [1]
Conditions | 0.0001 M | 0.01 µM | 0.0278 µM | 0.0774 µM | 0.215 µM | 0.599 µM | 1.67 µM | 4.64 µM | 12.9 µM | 35.9 µM
metabolite supplement: 50uM thymidine | 4.77 | 98.1 | 96.2 | 96.3 | 97.9 | 91.9 | 63.7 | 24.6 | 11.8 | 6.83
metabolite supplement: 50uM thymidine + 250uM hypoxanthine | 5.93 | 106 | 104 | 105 | 106 | 103 | 84 | 39.7 | 15.7 | 8.5
metabolite supplement: 250uM hypoxanthine | 4.9 | 100 | 96.9 | 97.3 | 96.8 | 90.6 | 78.4 | 33.2 | 13 | 7.4
metabolite supplement: vehicle | 4.53 | 102 | 102 | 101 | 99.6 | 94.6 | 65 | 22.9 | 11.1 | 6.67

Cc1[nH]nc2c1C(c1cc(CO)cc(-c3ccccc3)c1)(C(C)C)C(C#N)=C(N)O2 (centres undefined) [SHIN1]
[2]
Conditions | cell viability [%]
log10 compound concentration (M): -5, supplement / serum: Hypoxanthine | 88.2
log10 compound concentration (M): -5, supplement / serum: Hypoxanthine+Sodium Formate | 91.8
log10 compound concentration (M): -5, supplement / serum: Sodium Formate | 83.5
log10 compound concentration (M): -5, supplement / serum: Vehicle | 12.1
log10 compound concentration (M): -5.47712, supplement / serum: Hypoxanthine | 102
log10 compound concentration (M): -5.47712, supplement / serum: Hypoxanthine+Sodium Formate | 109
log10 compound concentration (M): -5.47712, supplement / serum: Sodium Formate | 104
log10 compound concentration (M): -5.47712, supplement / serum: Vehicle | 13.6
log10 compound concentration (M): -5.95424, supplement / serum: Hypoxanthine | 105
log10 compound concentration (M): -5.95424, supplement / serum: Hypoxanthine+Sodium Formate | 107
log10 compound concentration (M): -5.95424, supplement / serum: Sodium Formate | 99.9
log10 compound concentration (M): -5.95424, supplement / serum: Vehicle | 13.9
log10 compound concentration (M): -6.43136, supplement / serum: Hypoxanthine | 103
log10 compound concentration (M): -6.43136, supplement / serum: Hypoxanthine+Sodium Formate | 109
log10 compound concentration (M): -6.43136, supplement / serum: Sodium Formate | 102
log10 compound concentration (M): -6.43136, supplement / serum: Vehicle | 14.8
log10 compound concentration (M): -6.90849, supplement / serum: Hypoxanthine | 101
log10 compound concentration (M): -6.90849, supplement / serum: Hypoxanthine+Sodium Formate | 104
log10 compound concentration (M): -6.90849, supplement / serum: Sodium Formate | 108
log10 compound concentration (M): -6.90849, supplement / serum: Vehicle | 16.4
log10 compound concentration (M): -7.38561, supplement / serum: Hypoxanthine | 88.3
log10 compound concentration (M): -7.38561, supplement / serum: Hypoxanthine+Sodium Formate | 86.8
log10 compound concentration (M): -7.38561, supplement / serum: Sodium Formate | 85.4
log10 compound concentration (M): -7.38561, supplement / serum: Vehicle | 14
log10 compound concentration (M): -7.86273, supplement / serum: Hypoxanthine | 92.2
log10 compound concentration (M): -7.86273, supplement / serum: Hypoxanthine+Sodium Formate | 99.9
log10 compound concentration (M): -7.86273, supplement / serum: Sodium Formate | 90.9
log10 compound concentration (M): -7.86273, supplement / serum: Vehicle | 27.1
log10 compound concentration (M): -8.33985, supplement / serum: Hypoxanthine | 101
log10 compound concentration (M): -8.33985, supplement / serum: Hypoxanthine+Sodium Formate | 102
log10 compound concentration (M): -8.33985, supplement / serum: Sodium Formate | 99.8
log10 compound concentration (M): -8.33985, supplement / serum: Vehicle | 47.3
log10 compound concentration (M): -8.81697, supplement / serum: Hypoxanthine | 101
log10 compound concentration (M): -8.81697, supplement / serum: Hypoxanthine+Sodium Formate | 103
log10 compound concentration (M): -8.81697, supplement / serum: Sodium Formate | 99
log10 compound concentration (M): -8.81697, supplement / serum: Vehicle | 65.1
log10 compound concentration (M): -9.29409, supplement / serum: Hypoxanthine | 96.8
log10 compound concentration (M): -9.29409, supplement / serum: Hypoxanthine+Sodium Formate | 99.9
log10 compound concentration (M): -9.29409, supplement / serum: Sodium Formate | 97.1
log10 compound concentration (M): -9.29409, supplement / serum: Vehicle | 85.7
log10 compound concentration (M): -9.77121, supplement / serum: Hypoxanthine | 102
log10 compound concentration (M): -9.77121, supplement / serum: Hypoxanthine+Sodium Formate | 105
log10 compound concentration (M): -9.77121, supplement / serum: Sodium Formate | 98.8
log10 compound concentration (M): -9.77121, supplement / serum: Vehicle | 92.1
